# Test results taken from publication PMC12670425, “Mechanistic Characterization of a Small Molecule as a Direct NLRP3 Inhibitor via Binding to the NACHT Domain” (Journal of Medicinal Chemistry, 2025).
# Key:
# [1] = target: T1, NLRP3 inflammasome (Mus musculus, UniProt Q8R4B8); assay: IL-1β production in J774A.1 cells upon NLRP3 inflammasome activation (ELISA); format: cell-based, murine; details: for IC50: LPS/ATP activation
# T1 construct: endogenous in cells; host or cells: J774A.1 murine macrophages (LPS- or Pam3CSK4-primed)
# Description: The levels of IL-1β and TNF-α in the supernatant were measured by ELISA.
# [2] = target: T2, NLRP3 (Mus musculus, UniProt Q8R4B8); assay: Photoaffinity labeling of recombinant NLRP3 with YM-I-27 and NBD-Azide click, with competition; format: binding
# T2 construct: The recombinant full-length NLRP3 protein was expressed and purified as previously described using Expi293F cells; FLAG (N); host or cells: Expi293F
# T2 sequence (Q8R4B8 whole entry): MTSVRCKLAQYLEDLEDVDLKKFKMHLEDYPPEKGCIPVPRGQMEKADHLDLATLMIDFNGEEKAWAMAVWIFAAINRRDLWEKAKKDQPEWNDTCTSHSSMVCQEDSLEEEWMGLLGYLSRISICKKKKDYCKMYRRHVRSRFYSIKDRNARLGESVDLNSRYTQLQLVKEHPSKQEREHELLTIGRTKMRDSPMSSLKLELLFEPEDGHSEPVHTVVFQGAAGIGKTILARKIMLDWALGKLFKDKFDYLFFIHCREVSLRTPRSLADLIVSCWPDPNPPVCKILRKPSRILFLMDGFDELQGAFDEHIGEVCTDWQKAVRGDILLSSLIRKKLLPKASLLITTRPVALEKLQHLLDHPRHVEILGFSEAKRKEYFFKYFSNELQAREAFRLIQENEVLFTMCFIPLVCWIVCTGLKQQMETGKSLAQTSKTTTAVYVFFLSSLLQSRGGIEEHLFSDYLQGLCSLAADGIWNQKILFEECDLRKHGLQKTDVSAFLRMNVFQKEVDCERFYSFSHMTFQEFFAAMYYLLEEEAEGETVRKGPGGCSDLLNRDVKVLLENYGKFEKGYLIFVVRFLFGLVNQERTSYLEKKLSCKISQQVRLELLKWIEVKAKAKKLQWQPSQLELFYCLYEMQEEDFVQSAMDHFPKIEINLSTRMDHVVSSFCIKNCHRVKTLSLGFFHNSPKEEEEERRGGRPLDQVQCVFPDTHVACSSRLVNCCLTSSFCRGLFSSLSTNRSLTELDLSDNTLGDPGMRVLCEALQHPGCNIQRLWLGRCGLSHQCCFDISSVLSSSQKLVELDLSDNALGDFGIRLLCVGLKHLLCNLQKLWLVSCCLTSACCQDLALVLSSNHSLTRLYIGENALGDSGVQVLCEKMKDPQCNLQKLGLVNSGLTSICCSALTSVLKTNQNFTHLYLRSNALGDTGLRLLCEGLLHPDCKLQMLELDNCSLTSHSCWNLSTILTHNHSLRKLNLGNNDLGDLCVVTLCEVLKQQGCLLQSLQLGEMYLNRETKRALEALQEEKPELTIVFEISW
# Description: 30 μL aliquots of recombinant NLRP3 or a mixture of J774A.1 cell lysate and NLRP3 were incubated with or without YM-I-27 at the indicated concentrations at 37 °C for 30 min. The samples were then placed on ice and irradiated at 365 nm for 15 min. Subsequently, 1 μL of NBD-Azide (5 mM) or Biotin-PEG3-Azide (5 mM) was added to the samples, followed by the addition of 1 μL of CuSO4 (50 mM), tris(benzyltriazolylmethyl)-amine (TBTA) (30 mM), and tris(2-carboxyethyl)-phosphine (TCEP) (100 mM). The CuAAC reactions were agitated at room temperature for 1 h, and proteins were precipitated with prechilled methanol and left to dry. The protein pellets were then suspended in 30 μL of 2x SDS loading buffer and heated for 10 min at 95 °C. […] The Biotin-PEG3-Azide-labeled proteins were then transferred to membranes and analyzed by Western blotting using streptavidin-HRP and NLRP3 antibodies, respectively.
# [3] = target: T2, NLRP3; assay: In situ proteome click labeling in J774A.1 cell lysate spiked with NLRP3; format: binding, murine; details: YM-I-27 3 and 10 μM; Biotin-PEG3-Azide click; J774A.1 lysate:NLRP3 20:1
# Description: 30 μL aliquots of recombinant NLRP3 or a mixture of J774A.1 cell lysate and NLRP3 were incubated with or without YM-I-27 at the indicated concentrations at 37 °C for 30 min. The samples were then placed on ice and irradiated at 365 nm for 15 min. Subsequently, 1 μL of NBD-Azide (5 mM) or Biotin-PEG3-Azide (5 mM) was added to the samples, followed by the addition of 1 μL of CuSO4 (50 mM), tris(benzyltriazolylmethyl)-amine (TBTA) (30 mM), and tris(2-carboxyethyl)-phosphine (TCEP) (100 mM). The CuAAC reactions were agitated at room temperature for 1 h, and proteins were precipitated with prechilled methanol and left to dry. The protein pellets were then suspended in 30 μL of 2x SDS loading buffer and heated for 10 min at 95 °C. The SDS-PAGE gels of NBD-Azide-labeled proteins were then washed with washing buffer (10% acetic acid, 40% methanol in water) for 2 h and imaged using ChemiDoc MP Imaging System (Bio-Rad) with Alexa Fluor 488 (λex = 490 nm, λem = 525 nm). The Biotin-PEG3-Azide-labeled proteins were then transferred to membranes and analyzed by Western blotting using streptavidin-HRP and NLRP3 antibodies, respectively.
# [4] = target: T3, endogenous NLRP3 (Mus musculus, UniProt Q8R4B8); assay: Immunocytochemistry FRET assay in J774A.1 cells; format: cell-based, murine; details: LPS-treated J774A.1 cells; TAMRA acceptor clicked to probe
# T3 construct: endogenous in cells; host or cells: J774A.1 murine macrophages (LPS- or Pam3CSK4-primed)
# Description: J774A.1 cells were treated with 1 μg/mL LPS for 4.5 h, and the photoactive probe (YM-I-27) was added and incubated for 30 min. Cells were irradiated at 365 nm for 30 min on ice and were fixed and permeabilized following the Immunofluorescence Microscopy procedures. The click reaction was performed in PBS containing TAMRA-N3 (30 μM), CuSO4 (800 μM), TBTA (500 μM), and TCEP (500 μM) at room temperature in the dark for 2.5 h. Cells were thoroughly washed with PBS and blocked by following the above procedures. Cells were then treated with anti-NLRP3 (cryo-2, 1:200) for 1.5 h, followed by Alexa Fluor 488-conjugated antimouse secondary antibody (Thermo Fisher, 4 μg/mL). Coverslips were mounted to slides, and data were acquired using a Zeiss LSM710 confocal microscope (Zeiss) and a 440 nm pulsed laser. The difference in the fluorescence lifetime was calculated by subtracting the median lifetime of Alexa Fluor 488 (donor) in the absence and presence of the YM-I-27 probe clicked with TAMRA (acceptor).
# [5] = target: T4, NLRP3, NEK7, ASC (Mus musculus, UniProt Q8R4B8); assay: Photoaffinity labeling and pull-down with YM-I-85 in LPS-primed J774A.1 cell lysates; format: binding, murine; details: UV irradiation
# T4 construct: endogenous in cells; host or cells: J774A.1 murine macrophages (LPS- or Pam3CSK4-primed)
# Description: LPS-primed J774A.1 cells were lysed with NP-40 lysis buffer (50 mM Tris-HCl at pH 8, 150 mM NaCl, 1.0% NP-40, supplemented with cOmplete mini protease inhibitor cocktail) and centrifuged at 20,000g for 20 min at 4 °C. The supernatant was diluted to a concentration of 1.2 mg/mL and incubated with the competing compound for 1 h on ice, followed by incubation with YM-I-85 for 1 h on ice. Samples were irradiated at 365 nm for 15 min and then incubated with Streptavidin Agarose Resin (Thermo Fisher) overnight at 4 °C. The resins were washed once with 0.1% SDS in PBS and twice with 1% NP-40 in PBS before eluting with SDS-PAGE loading buffer and boiling. Beads were spun down, and the supernatants were analyzed by immunoblotting.
# [6] = test system: TNF-α; assay: TNF-α production in J774A.1 cells under LPS/nigericin (ELISA); format: cell-based, murine
# [7] = test system: NLRP3 and pro-IL-1β expression; assay: Western blot of LPS-induced NLRP3 and pro-IL-1β (priming stage) in J774A.1 cells; format: cell-based, murine; details: YQ128 10 μM, curcumin 150 μM, MCC950 1 μM, LPS 1 μg/mL
# [8] = test system: ASC specks; assay: ASC speck formation by immunofluorescence in J774A.1 cells; format: cell-based, murine; details: LPS/nigericin, YQ128 10 and 20 μM
# Description: J774A.1 cells were seeded onto poly-D-lysine-coated glass coverslips in a 12-well plate (1 × 10^6 cells/well) and cultured in their respective growth medium, allowing them to attach overnight at 37 °C. For ASC speck formation, cells were treated with 1 μg/mL LPS for 4.5 h with different doses of compound treatments during the last hour, followed by treatment with 10 μM nigericin for 1.5 h. Cells were fixed with 4% paraformaldehyde, permeabilized with 0.1% Triton X-100 in PBS, and then blocked with 1% BSA and 0.1% Tween-20 in PBS. […] Nuclei were stained with DAPI (2 μg/mL), and coverslips were mounted onto slides using Epredia Immuno-Mount (Fisher Scientific). Images were acquired using a Zeiss LSM700 confocal microscope (Zeiss).
# [9] = test system: mitochondrial ROS; assay: Mitochondrial ROS and integrity (MitoSOX/MitoTracker) in J774A.1 cells; format: cell-based, murine; details: LPS/nigericin, YQ128 10 μM
# Description: J774A.1 cells (5 × 10^5 cells/mL) were plated in 12-well plates precoated with poly-L-lysine overnight. […] The supernatants were discarded, and the cells were washed with ice-cold PBS three times and fixed with 4% PFA in PBS for 15 min. DAPI (5 μg/mL) was used for nuclear staining. After that, the cells were washed with PBS three times, and fluorescence microscopy analyses were carried out using an Olympus IX73.
# Figure S2. J774A.1 were primed with LPS (1 μg/mL) for 4.5 h and treated with or […]
# h. Cells were stained with MitoSOX and MitoTracker red. Nuclei were stained with […]
# Figure S3. YQ128 (A&B) and MCC950 (C&D) dose-dependently block the recognition of NLRP3 by D4D8T antibody. […]
# [10] = test system: caspase-1 and GSDMD cleavage; assay: Western blot of cleavage of caspase-1 and GSDMD in J774A.1 cells; format: cell-based, murine; details: LPS 10 μg/mL/nigericin 10 μM
# Description: J774A.1 cells were seeded into a 24-well plate at 0.6 × 10^6 cells/well and allowed to attach overnight at 37 °C. For the priming, cells were treated with compounds for 1 h, followed by 1 μg/mL LPS treatment for 4.5 h. Cells were lysed in RIPA buffer, and cell lysates were analyzed by immunoblotting. For the activation, cells were treated with 10 μg/mL LPS for 4.5 h. Compounds were added during the last hour of LPS treatment. Then, cells were treated with 10 μM nigericin for 1 h. Cells were lysed in RIPA buffer, and cell lysates were analyzed by immunoblotting.
# Protein samples were prepared with 4x Laemmli sample buffer (Bio-Rad) supplemented with β-mercaptoethanol, followed by boiling for 5–10 min. Samples were then resolved by SDS-PAGE and dry-transferred to poly­(vinyl difluoride) (PVDF) membranes using a Trans-Blot Turbo transfer system (Bio-Rad). Membranes were blocked in 5% (w/v) dried milk or BSA in TBS (Bio-Rad) supplemented with 0.1% (v/v) Tween-20 (TBS-T) for 1 h at room temperature or overnight at 4 °C. Membranes were then incubated with primary antibody, followed by a horseradish peroxidase (HRP)-conjugated secondary antibody, each diluted in 5% (w/v) dried milk or BSA in TBS-T for 1–2 h at room temperature or overnight at 4 °C. Membranes were developed with Clarity Western ECL substrate (Bio-Rad) and visualized for chemiluminescence using an Amersham Imager 680. […]
# [11] = target: T5, recombinant human NLRP3 protein (Homo sapiens, UniProt Q96P20); assay: Microscale thermophoresis (MST); format: binding; details: n = 3
# T5 construct: The recombinant full-length NLRP3 protein was expressed and purified as previously described using Expi293F cells; 10His (N); 6His (C); made in house; host or cells: Expi293F
# T5 sequence (Q96P20 whole entry): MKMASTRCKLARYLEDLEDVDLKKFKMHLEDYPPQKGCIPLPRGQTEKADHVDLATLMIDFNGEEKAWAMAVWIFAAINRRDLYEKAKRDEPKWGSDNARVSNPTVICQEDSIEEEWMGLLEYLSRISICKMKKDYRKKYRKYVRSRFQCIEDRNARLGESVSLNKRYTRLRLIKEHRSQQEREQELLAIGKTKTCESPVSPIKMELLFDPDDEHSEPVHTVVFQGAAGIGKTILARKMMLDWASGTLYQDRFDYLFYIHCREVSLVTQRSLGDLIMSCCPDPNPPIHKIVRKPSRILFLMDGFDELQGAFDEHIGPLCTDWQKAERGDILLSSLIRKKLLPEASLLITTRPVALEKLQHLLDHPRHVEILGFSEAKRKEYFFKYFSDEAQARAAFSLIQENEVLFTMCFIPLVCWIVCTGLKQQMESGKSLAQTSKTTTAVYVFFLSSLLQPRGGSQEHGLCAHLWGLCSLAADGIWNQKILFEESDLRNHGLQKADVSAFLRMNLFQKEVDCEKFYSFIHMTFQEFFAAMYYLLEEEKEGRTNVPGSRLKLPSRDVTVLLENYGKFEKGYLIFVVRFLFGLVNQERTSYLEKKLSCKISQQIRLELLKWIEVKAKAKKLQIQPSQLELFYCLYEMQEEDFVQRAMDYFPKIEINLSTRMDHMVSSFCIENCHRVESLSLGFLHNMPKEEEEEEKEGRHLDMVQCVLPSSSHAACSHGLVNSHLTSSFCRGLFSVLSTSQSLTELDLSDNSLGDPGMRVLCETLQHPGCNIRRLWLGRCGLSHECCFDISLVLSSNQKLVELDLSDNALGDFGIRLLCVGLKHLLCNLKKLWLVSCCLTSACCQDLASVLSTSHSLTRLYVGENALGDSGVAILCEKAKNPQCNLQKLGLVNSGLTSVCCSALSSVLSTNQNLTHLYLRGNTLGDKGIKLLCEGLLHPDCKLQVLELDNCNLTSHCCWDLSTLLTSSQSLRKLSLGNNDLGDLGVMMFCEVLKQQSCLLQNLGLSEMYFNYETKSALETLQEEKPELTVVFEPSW
# Description: The binding affinity was measured with a Monolith NT.Automated instrument as described previously. Recombinant human NLRP3 protein (500 nM) was labeled with 50 nM RED-tris-NTA dye (NanoTemper Technologies, MO-L018). […] The samples were loaded into NanoTemper glass capillaries, and thermophoresis curves were analyzed using the instrument.
# [12] = target: T6, NLRP3 NACHT domain (Homo sapiens, UniProt Q96P20); assay: Surface plasmon resonance (SPR); format: binding; details: biotinylated NACHT protein; single-cycle kinetics, 1:1 model
# T6 construct: (K131-L679)-Avi plasmid; 8His-Strep II-ZZ-TEV site (N, cleaved yes); made in house; host or cells: Sf21 insect cells (baculovirus)
# T6 sequence (Q96P20 131-679): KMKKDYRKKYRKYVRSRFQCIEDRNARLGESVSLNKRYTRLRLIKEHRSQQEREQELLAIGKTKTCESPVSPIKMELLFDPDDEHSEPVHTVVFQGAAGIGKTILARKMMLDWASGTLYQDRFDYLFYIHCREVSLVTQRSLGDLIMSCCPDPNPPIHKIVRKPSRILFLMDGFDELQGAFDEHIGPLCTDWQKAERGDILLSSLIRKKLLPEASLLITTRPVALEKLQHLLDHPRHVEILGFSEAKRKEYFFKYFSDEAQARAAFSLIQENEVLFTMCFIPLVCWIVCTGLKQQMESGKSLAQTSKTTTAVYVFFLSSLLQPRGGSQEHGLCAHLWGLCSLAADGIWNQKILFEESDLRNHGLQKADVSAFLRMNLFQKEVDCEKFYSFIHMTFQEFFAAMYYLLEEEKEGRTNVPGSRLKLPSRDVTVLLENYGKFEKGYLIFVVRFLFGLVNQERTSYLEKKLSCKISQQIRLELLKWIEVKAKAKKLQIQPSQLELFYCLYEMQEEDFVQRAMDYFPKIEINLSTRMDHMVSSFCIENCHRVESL
# Description: Human biotinylated-NACHT domain of NLRP3 was expressed in Sf21 insect cells using the pFastBac1–8His-Strep II-ZZ-TEV-NLRP3­(K131-L679)-Avi plasmid. For protein expression, 1.6 L of insect cells were cultured with a viral stock of the second passage for 48 h at 27 °C. Cells were collected, lysed in lysis buffer (50 mM HEPES pH 7.5, 500 mM NaCl, 10% glycerol, 1 mM MgCl2, 1 mM TCEP, 100 μM ATP) and centrifuged at 16,000 rpm for 60 min. The supernatant was loaded onto a Ni Bestarose FF column and eluted with lysis buffer containing 300 mM imidazole. The sample was biotinylated in a tube containing BirA enzyme (1:100 (w/w) to protein) with biotin buffer and TEV protease (1:10 (w/w) to protein), and the reaction was incubated at 4 °C overnight. The sample was collected and eluted with a lysis buffer containing 75 mM biotin from Strep-Tactin XT columns. The biotinylated NACHT protein was further purified with HiLoad 16/600 Superdex 200 pg column with an elution buffer (50 mM HEPES pH 7.5, 500 mM NaCl, 10% glycerol, 1 mM MgCl2, 1 mM TCEP).
# SPR experiments were performed on a Biacore 1K system with streptavidin sensor chip (Series S Sensor Chip SA, Cytiva) according to the reported procedure. The system was flushed with running buffer (10 mM HEPES, pH 7.4, 150 mM NaCl, 0.5 mM ADP, 0.5 mM TCEP, 2 mM MgCl2, 0.05% Tween 20, 2% DMSO). […]
# [13] = test system: full-length NLRP3, PYD-NACHT fragment, PYD fragment; assay: Drug affinity responsive target stability (DARTS); format: binding, human; details: YQ128 50 μM; 50–200 ng Pronase per μg protein
# Description: Then, 0.1 mg/mL Pronase (Sigma-Aldrich) was added at the protease to protein ratio, between 50 and 200 ng Pronase per μg of protein for 7.5–30 min at room temperature. The reaction was stopped by the addition of a 20x protease inhibitor cocktail and incubated on ice for 10 min. Protein samples were analyzed by immunoblotting.
# [14] = target: T7, caspase-1 (Homo sapiens, UniProt P29466); assay: In vitro caspase-1 cleavage assay (recombinant YTHDF2 substrate); details: recombinant caspase-1; YQ128 1, 3 and 10 μM
# T7 sequence (P29466 120-297 limits assumed): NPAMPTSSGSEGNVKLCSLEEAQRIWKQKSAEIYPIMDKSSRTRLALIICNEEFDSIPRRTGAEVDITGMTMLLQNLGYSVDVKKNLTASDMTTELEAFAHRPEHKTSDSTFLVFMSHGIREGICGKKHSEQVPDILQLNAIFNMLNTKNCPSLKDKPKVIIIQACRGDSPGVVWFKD
# T7 sequence (P29466 317-404 limits assumed): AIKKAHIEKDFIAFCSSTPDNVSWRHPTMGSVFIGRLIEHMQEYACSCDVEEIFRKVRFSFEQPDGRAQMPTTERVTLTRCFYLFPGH
# Description: The reactions were then terminated by boiling in 2× SDS sample buffer, and the samples were analyzed by Western blotting.
smiles,measurement,setting,value
C#CCCC1(CCOc2ccc(Cl)cc2CN(CCc2ccc(S(=O)(=O)NCC#C)cc2)C(=O)Cc2ccsc2)N=N1 [YM-I-27],IC50,[1],500 nM
same,labeling of recombinant NLRP3 protein by probe,"[2]; UV cross-linking, NBD-N3 click, fluorescent visualization",dose-dependently labeled the NLRP3 protein
same,in situ proteome labeling,[3],successfully and efficiently recognized NLRP3 along with four other proteins
same,decrease of emission lifetime of Alexa Fluor 488 (FRET donor),[4],~44 ps
C#CCNS(=O)(=O)c1ccc(CCN(Cc2cc(Cl)ccc2OCCC2(CCc3cn(CCOCCOCCNC(=O)CCCCC4SCC5NC(=O)NC54)nn3)N=N2)C(=O)Cc2ccsc2)cc1 (centres unmarked) [YM-I-85],IC50,[1],2400 nM
same,potency relative to YQ128 (fold less),"[1]; LPS/ATP, IL-1β",~8 fold
same,"photoaffinity labeling of proteins by probe (pull-down, Western blot)",[5],efficiently labeled NLRP3 and NEK7 in a dose-dependent manner but not ASC
"O=C(O)c1ccc(/C=C2/SC(=S)N(Cc3cccc(C(F)(F)F)c3)C2=O)cc1 [CY-09, reference compound]",competition of YM-I-27 labeling of NLRP3,[2]; recombinant NLRP3 preincubated with competitor,completely blocked the interaction
C#CCNS(=O)(=O)c1ccc(CCN(Cc2cc(Cl)ccc2OCCC)C(=O)Cc2ccsc2)cc1 [YQ128],production of TNF-α,[6],No inhibition
same,levels of LPS-induced pro-IL-1β and NLRP3,[7],neither YQ128 nor MCC950 changed the levels
same,formation of ASC specks,[8],significantly suppressed the formation of ASC specks
same,production of mitochondrial ROS and integrity,[9],no significant effect
same,cleavage of caspase-1 and GSDMD,[10],inhibitory effect
same,Kd,[11],117 nM
same,Kd,[12],165 nM
same,Pronase digestion pattern (DARTS),[13],"the digestion pattern of the full-length NLRP3 and the PYD-NACHT fragment, but not the PYD fragment, by Pronase was altered"
same,catalytic activity of caspase-1,[14],does not interfere with the catalytic activity of caspase-1
